According to patent US5321030A, “Creatine analogs having antiviral activity” (priority 1991, dated 1994):
Values after ≈ are worked out from the molar mass of the structure shown. Like-named read-outs stand apart in the source and are kept apart here.

Legend:
[1] = test system: herpes simplex virus type 2 (HSV-2), strain E194; assay: HSV-2 vaginitis in mice; type: in vivo, Swiss Webster female mice; conditions: for Mean Day to Death: virus infected
[2] = in vivo; type: in vivo; conditions: for survival: mouse, in vivo, read-out: Survivors/Total (%); for Weight Change: uninfected, combined animal weights day 0 to day 15
[3] = test system: Pseudorabies virus, Aujeszky strain; type: cell-based; conditions: similar assay
[4] = test system: Herpes Simplex Virus, Type 1, strain BW10168 (TK-); assay: microbe, parasite or virus in culture; type: cell-based; set-up: TI50 (CD50 ÷ ED50): unit not given beside the values; conditions: for Average CPE: virus controls 4.0
[5] = in vitro; conditions: monkey, vero cells
[6] = test system: HSV-1; assay: Cytopathic effect (CPE) assay, HSV-1
[7] = test system: HSV-2; assay: Cytopathic effect (CPE) assay, HSV-2; conditions: Human alphaherpesvirus 2, Vero, read-out: concentration required to inhibit cytopathogenicity by 60% or 70%

Nc1nc2c(ncn2COCCO)c(=O)[nH]1 [acyclovir]
average lesion score ([1]; 25 mg/kg/day gavage, Grand Ave. (Days 3-14)): 1.5 ± 0.6
average lesion score ([1]; 25 mg/kg/day gavage, day 3): 0.1 ± 0.2
average lesion score ([1]; 25 mg/kg/day gavage, day 5): 1.3 ± 1.5
average lesion score ([1]; 25 mg/kg/day gavage, day 6): 1.3 ± 1.3
average lesion score ([1]; 25 mg/kg/day gavage, day 7): 1.7 ± 1.6
average lesion score ([1]; 25 mg/kg/day gavage, day 8): 2.1 ± 1.5
average lesion score ([1]; 25 mg/kg/day gavage, day 9): 2.1 ± 1.4
average lesion score ([1]; 25 mg/kg/day gavage, day 10): 2.0 ± 1.2
average lesion score ([1]; 25 mg/kg/day gavage, day 11): 1.9 ± 1.3
average lesion score ([1]; 25 mg/kg/day gavage, day 12): 1.9 ± 1.4
average lesion score ([1]; 25 mg/kg/day gavage, day 13): 1.8 ± 1.5
average lesion score ([1]; 25 mg/kg/day gavage, day 14): 1.8 ± 1.5
average lesion score ([1]; 50 mg/kg/day gavage, Grand Ave. (Days 3-14)): 0.8 ± 0.3
average lesion score ([1]; 50 mg/kg/day gavage, day 3): 0.0 ± 0.0
average lesion score ([1]; 50 mg/kg/day gavage, day 4): 0.2 ± 0.3
average lesion score ([1]; 50 mg/kg/day gavage, day 5): 1.0 ± 1.8
average lesion score ([1]; 50 mg/kg/day gavage, day 6): 0.5 ± 0.7
average lesion score ([1]; 50 mg/kg/day gavage, day 7): 0.8 ± 1.2
average lesion score ([1]; 50 mg/kg/day gavage, day 8): 0.8 ± 0.9
average lesion score ([1]; 50 mg/kg/day gavage, day 10): 0.9 ± 1.2
average lesion score ([1]; 50 mg/kg/day gavage, day 11): 0.9 ± 1.2
average lesion score ([1]; 50 mg/kg/day gavage, day 12): 0.9 ± 1.2
average lesion score ([1]; 50 mg/kg/day gavage, day 14): 1.0 ± 1.3
average lesion score ([1]; 100 mg/kg/day gavage, Grand Ave. (Days 3-14)): 0.7 ± 0.4
average lesion score ([1]; 100 mg/kg/day gavage, day 3): 0.1 ± 0.2
average lesion score ([1]; 100 mg/kg/day gavage, day 4): 0.2 ± 0.3
average lesion score ([1]; 100 mg/kg/day gavage, day 5): 0.4 ± 0.4
average lesion score ([1]; 100 mg/kg/day gavage, day 6): 0.5 ± 0.5
average lesion score ([1]; 100 mg/kg/day gavage, day 7): 0.6 ± 0.7
average lesion score ([1]; 100 mg/kg/day gavage, day 8): 0.8 ± 0.9
average lesion score ([1]; 100 mg/kg/day gavage, day 9): 0.9 ± 0.9
average lesion score ([1]; 100 mg/kg/day gavage, day 10): 1.4 ± 1.2
average lesion score ([1]; 100 mg/kg/day gavage, day 11): 1.0 ± 1.3
average lesion score ([1]; 100 mg/kg/day gavage, day 12): 1.1 ± 1.3
average lesion score ([1]; 100 mg/kg/day gavage, day 13): 0.8 ± 0.9
average lesion score ([1]; 100 mg/kg/day gavage, day 14): 0.7 ± 0.9
average lesion score ([1]; 200 mg/kg/day gavage, Grand Ave. (Days 3-14)): 0.6 ± 0.3
average lesion score ([1]; 200 mg/kg/day gavage, day 3): 0.1 ± 0.2
average lesion score ([1]; 200 mg/kg/day gavage, day 4): 0.1 ± 0.2
average lesion score ([1]; 200 mg/kg/day gavage, day 5): 0.4 ± 0.5
average lesion score ([1]; 200 mg/kg/day gavage, day 6): 0.2 ± 0.3
average lesion score ([1]; 200 mg/kg/day gavage, day 7): 0.4 ± 0.5
average lesion score ([1]; 200 mg/kg/day gavage, day 8): 0.7 ± 0.6
average lesion score ([1]; 200 mg/kg/day gavage, day 9): 0.9 ± 0.7
average lesion score ([1]; 200 mg/kg/day gavage, day 10): 1.0 ± 0.6
average lesion score ([1]; 200 mg/kg/day gavage, day 11): 0.7 ± 0.7
average lesion score ([1]; 200 mg/kg/day gavage, day 12): 0.7 ± 0.7
average lesion score ([1]; 200 mg/kg/day gavage, day 13): 0.8 ± 0.7
average lesion score ([1]; 200 mg/kg/day gavage, day 14): 0.7 ± 0.7
activity in vaginitis model ([1]; 5% cream topical): very effective
average lesion score ([1]; acyclovir 5% cream topical, Grand Ave. (Days 3-14)): 0.3 ± 0.2
average lesion score ([1]; acyclovir 5% cream topical, day 3): 0.1 ± 0.1
average lesion score ([1]; acyclovir 5% cream topical, day 4): 0.1 ± 0.1
average lesion score ([1]; acyclovir 5% cream topical, day 5): 0.1 ± 0.2
average lesion score ([1]; acyclovir 5% cream topical, day 6): 0.2 ± 0.2
average lesion score ([1]; acyclovir 5% cream topical, day 7): 0.2 ± 0.2
average lesion score ([1]; acyclovir 5% cream topical, day 8): 0.2 ± 0.3
average lesion score ([1]; acyclovir 5% cream topical, day 9): 0.2 ± 0.2
average lesion score ([1]; acyclovir 5% cream topical, day 10): 0.6 ± 0.8
average lesion score ([1]; acyclovir 5% cream topical, day 11): 0.5 ± 0.7
average lesion score ([1]; acyclovir 5% cream topical, day 12): 0.3 ± 0.6
average lesion score ([1]; acyclovir 5% cream topical, day 13): 0.3 ± 0.6
average lesion score ([1]; acyclovir 5% cream topical, day 14): 0.3 ± 0.6
Mean Day to Death ([1]; ACV 25 mg/kg): 10.4 ± 2.5
Mean Day to Death ([1]; ACV 50 mg/kg): 11.3 ± 2.1
Mean Day to Death ([1]; ACV 100 mg/kg): 12.0 ± 1.4
Mean Day to Death ([1]; ACV 200 mg/kg): 11.3 ± 2.5
survival ([2]; 25 mg/kg): 100%
survival ([2]; 50 mg/kg): 100%
survival ([2]; 100 mg/kg): 100%
survival ([2]; 200 mg/kg): 100%
Weight Change ([2]; ACV 25 mg/kg): 2.8 g
Weight Change ([2]; ACV 50 mg/kg): 4.0 g
Weight Change ([2]; ACV 100 mg/kg): 3.5 g
Weight Change ([2]; ACV 200 mg/kg): 4.8 g
effect against Pseudorabies virus [3]: ineffective
Average CPE ([4]; Acyclovir 1.0 μg/ml): 4.0
Average CPE ([4]; Acyclovir 3.2 μg/ml): 3.2
Average CPE ([4]; Acyclovir 10 μg/ml): 1.5
Average CPE ([4]; Acyclovir 32 μg/ml): 0.3
Average CPE ([4]; Acyclovir 100 μg/ml): 0.5
Average CPE ([4]; Acyclovir 316 μg/ml): 0.2
Average CPE ([4]; Acyclovir 1000 μg/ml): 0
EC50 ([4]; Human alphaherpesvirus 1, Vero, read-out: ED50, Vero cells, Table 8): 10.6 µg/mL (≈ 47.1 µM)
TI50 (CD50 ÷ ED50) ([4]; Vero cells, Table 8): > 94
CC50 [5]: > 1000 µg/mL
EC65 ([6]; Human alphaherpesvirus 1, Vero, read-out: dose required to inhibit cytopathogenicity by 65%): 0.97 µM
EC50 ([6]; Human alphaherpesvirus 1, read-out: in vitro ED50): 7 µM
EC (60 or 70) [7]: 1.95 µM
